Patent US12178791B2, “Haloallylamine sulfone derivative inhibitors of lysyl oxidases and uses thereof” (Syntara Limited, priority 2018, dated 2024)
Counter-ions that a name gives are not always drawn. Like-named read-outs stand apart in the source and are kept apart here.

Assays:
[1] = test system: desmoplastic ovarian tumour; settings: mouse, in vivo; cited from earlier work
Recombinant human MAO-B = Recombinant human MAO-B (Homo sapiens (Human), UniProt P27338); assay: Inhibition of human recombinant MAO-B; type: biochemical; settings: benzylamine 100 μM
Sequence of Recombinant human MAO-B (P27338 whole entry): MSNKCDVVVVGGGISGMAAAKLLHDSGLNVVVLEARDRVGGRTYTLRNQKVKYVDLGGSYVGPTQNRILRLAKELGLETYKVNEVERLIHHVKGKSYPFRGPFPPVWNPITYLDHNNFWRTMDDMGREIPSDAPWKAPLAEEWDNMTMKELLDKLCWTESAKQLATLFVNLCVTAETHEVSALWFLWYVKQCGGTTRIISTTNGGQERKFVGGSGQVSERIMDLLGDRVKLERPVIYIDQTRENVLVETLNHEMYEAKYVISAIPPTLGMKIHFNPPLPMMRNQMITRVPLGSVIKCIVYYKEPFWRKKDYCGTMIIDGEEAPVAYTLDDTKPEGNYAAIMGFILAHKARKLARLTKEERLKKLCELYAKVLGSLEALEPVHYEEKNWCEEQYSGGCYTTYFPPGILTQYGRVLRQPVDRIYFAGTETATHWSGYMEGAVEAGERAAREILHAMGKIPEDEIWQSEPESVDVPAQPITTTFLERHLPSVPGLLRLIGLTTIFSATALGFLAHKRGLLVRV
Experimental: The specificity of the compounds of this invention was tested by determining their ability to inhibit MAO-B activities in vitro. Recombinant human MAO-B (0.06 mg/mL; Sigma Aldrich) was used as source of MAO-B enzyme activities. The assay was performed in a similar way as for human SSAO/VAP-1 (Example 28) except, the substrate benzylamine was used at 100 μM.

[2] = test system: SiHa cervical cancer cells; settings: cited from earlier work
LOXL2 [3] = target: T1, LOXL2 (Homo sapiens (Human), UniProt Q9Y4K0); assay: LOXL2 inhibition, Amplex Red oxidation assay; type: biochemical; settings: 30 min preincubation at 37 °C, putrescine substrate
T1 sequence (Q9Y4K0 26-774): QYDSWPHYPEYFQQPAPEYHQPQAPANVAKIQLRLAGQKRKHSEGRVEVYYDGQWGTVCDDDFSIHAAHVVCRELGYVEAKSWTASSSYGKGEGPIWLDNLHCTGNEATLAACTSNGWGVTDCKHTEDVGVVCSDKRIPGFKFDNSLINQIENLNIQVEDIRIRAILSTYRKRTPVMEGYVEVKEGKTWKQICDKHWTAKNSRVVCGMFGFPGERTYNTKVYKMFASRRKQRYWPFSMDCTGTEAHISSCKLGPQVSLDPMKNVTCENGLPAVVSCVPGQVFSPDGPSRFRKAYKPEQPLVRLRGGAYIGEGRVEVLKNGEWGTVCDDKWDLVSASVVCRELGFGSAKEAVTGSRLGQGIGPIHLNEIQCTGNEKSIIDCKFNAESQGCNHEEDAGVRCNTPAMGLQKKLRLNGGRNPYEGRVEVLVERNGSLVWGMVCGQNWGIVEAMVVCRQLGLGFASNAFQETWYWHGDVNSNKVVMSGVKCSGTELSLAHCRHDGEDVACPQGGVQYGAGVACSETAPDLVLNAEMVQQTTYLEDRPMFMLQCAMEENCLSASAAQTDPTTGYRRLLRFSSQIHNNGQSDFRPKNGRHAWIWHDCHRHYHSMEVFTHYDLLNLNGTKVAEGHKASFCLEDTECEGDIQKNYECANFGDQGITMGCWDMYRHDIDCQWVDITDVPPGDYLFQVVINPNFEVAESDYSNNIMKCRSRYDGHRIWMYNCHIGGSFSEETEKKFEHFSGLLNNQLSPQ
How it was run: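 LOXL2 in 1.2 M urea, 50 mM sodium borate pH 8.2 was preincubated with compound (11-point curve) for 30 min at 37 °C; mofegiline/pargyline were added only for non-purified enzyme. Reaction mix held 2× KM putrescine (10 mM), 120 μM Amplex Red and 1.5 U/mL HRP. H2O2 fluorescence (ex 565/em 590 nm) was read over 30 min, and IC50 came from slopes.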

[4] = target: surgery induced systemic LOX (Mus musculus (Mouse), UniProt P28301); settings: in vivo; cited from earlier work
Sequence of surgery induced systemic LOX (P28301 163-411): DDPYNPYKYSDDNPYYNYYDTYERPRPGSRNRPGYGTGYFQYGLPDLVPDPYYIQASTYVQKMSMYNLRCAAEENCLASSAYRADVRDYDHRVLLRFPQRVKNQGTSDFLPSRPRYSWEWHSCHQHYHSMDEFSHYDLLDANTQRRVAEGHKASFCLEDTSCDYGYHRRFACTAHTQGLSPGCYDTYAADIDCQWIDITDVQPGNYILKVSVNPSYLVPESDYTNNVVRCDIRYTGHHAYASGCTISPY

[5] = in vivo; cited from earlier work
LOX = LOX (Rattus norvegicus (Rat), UniProt P16636); settings: CIA rats; cited from earlier work
Sequence of LOX (P16636 163-411): as the sequence (P28301 163-411) above, with P27S, N31H, N142S, T224S, D231E counted along it

[6] = target: Human recombinant SSAO/VAP-1 (Homo sapiens (Human), UniProt Q16853); assay: Inhibition of human recombinant SSAO/VAP-1; type: biochemical
Sequence of Human recombinant SSAO/VAP-1 (Q16853 34-763): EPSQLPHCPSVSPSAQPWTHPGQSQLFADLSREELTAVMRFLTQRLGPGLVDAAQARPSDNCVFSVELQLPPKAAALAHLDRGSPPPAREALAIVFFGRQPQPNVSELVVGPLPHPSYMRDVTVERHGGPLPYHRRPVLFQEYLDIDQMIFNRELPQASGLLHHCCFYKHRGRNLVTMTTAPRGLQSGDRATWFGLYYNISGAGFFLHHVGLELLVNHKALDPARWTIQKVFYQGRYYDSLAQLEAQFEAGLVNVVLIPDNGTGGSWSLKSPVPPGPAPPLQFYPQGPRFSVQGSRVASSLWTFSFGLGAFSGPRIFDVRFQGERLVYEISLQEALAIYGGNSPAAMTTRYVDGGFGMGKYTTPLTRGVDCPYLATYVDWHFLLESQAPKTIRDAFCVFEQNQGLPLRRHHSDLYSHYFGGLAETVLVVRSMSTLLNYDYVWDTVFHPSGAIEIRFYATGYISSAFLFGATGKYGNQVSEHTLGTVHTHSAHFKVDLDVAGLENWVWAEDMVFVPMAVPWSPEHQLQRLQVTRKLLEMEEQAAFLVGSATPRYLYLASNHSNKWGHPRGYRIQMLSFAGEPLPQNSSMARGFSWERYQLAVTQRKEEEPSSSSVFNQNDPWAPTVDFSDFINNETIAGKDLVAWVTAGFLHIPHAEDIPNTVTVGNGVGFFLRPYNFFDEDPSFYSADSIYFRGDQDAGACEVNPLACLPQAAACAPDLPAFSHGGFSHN
How it was run: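 Purified enzyme (residues 34-763, expressed in CHO Lec8 cells; 0.25 μg/mL in 0.1 M sodium phosphate pH 7.4) was preincubated with compound 30 min at 37 °C. An added mix held 600 μM benzylamine, 120 μM Amplex Red and 1.5 U/mL HRP. Fluorescence (ex 565/em 590 nm) was read every 2.5 min for 30 min at 37 °C, and IC50 was derived from kinetic slopes over 4-11-point curves.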

Bovine LOX = Bovine LOX (Bos taurus (Bovine), UniProt P33072); assay: LOX inhibition, Amplex Red oxidation assay; type: biochemical; settings: 30 min preincubation at 37 °C, putrescine substrate
Sequence of Bovine LOX (P33072 170-418): as the sequence (P28301 163-411) above, with S10T, N31Y, S64A, A84X, N142S, A188N, Q202K, T224S, D231E counted along it
How it was run: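 Bovine LOX in 1.2 M urea, 50 mM sodium borate pH 8.2, with 1 μM mofegiline and 0.5 mM pargyline unless recombinant or purified. The added mix held putrescine at twice KM (20 mM for LOX), 120 μM Amplex Red and 1.5 U/mL HRP.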

GATA1low mice = assay: Mouse model of primary myelofibrosis; type: in vivo; settings: 15 mg/kg i.p. four times a week for 10 weeks
Experimental: Fifteen to sixteen week old GATA1low male and female mice were intra-peritoneal injected with either vehicle (olive oil), or Compound 19 at a dose of 15 mg/kg, four times a week for 10 weeks. The mice were then sacrificed and the spleens and femurs were harvested for histology and analysis (FIGS. 7(a-e) and FIGS. 8(a-d)).

LOXL2 [7] = target: T1, LOXL2; assay: Jump dilution experiment, sustained inhibition of LOXL2; type: biochemical; settings: jump dilution after 40 min at 37 °C with 10× or 30× IC50; vs non-inhibited controls;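 also: 30× IC50 used only where needed so inhibitor exceeds enzyme concentration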
Experimental: (§1) Jump Dilution experiment: The assay was developed using a 96 well format and the starting enzyme concentration was set 100 times higher than for the inhibition studies. […] After the incubation, the mixture was diluted 50× in assay buffer, followed by a further 2× dilution in Amplex Red-horseradish peroxidase-putrescine reaction mix (same as per the inhibition studies) prior to the fluorescent measurement. Results were expressed in % recovery of the signal after a specified time by comparison with non-inhibited controls.

LOXL1 = LOXL1 (Homo sapiens (Human), UniProt Q08397); assay: Jump dilution experiment, sustained inhibition of LOXL1; type: biochemical; settings: jump dilution after 40 min at 37 °C with 10× or 30× IC50; vs non-inhibited controls;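 also: 30× IC50 used only where needed so inhibitor exceeds enzyme concentration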
Sequence of LOXL1 (Q08397 96-574, species assumed): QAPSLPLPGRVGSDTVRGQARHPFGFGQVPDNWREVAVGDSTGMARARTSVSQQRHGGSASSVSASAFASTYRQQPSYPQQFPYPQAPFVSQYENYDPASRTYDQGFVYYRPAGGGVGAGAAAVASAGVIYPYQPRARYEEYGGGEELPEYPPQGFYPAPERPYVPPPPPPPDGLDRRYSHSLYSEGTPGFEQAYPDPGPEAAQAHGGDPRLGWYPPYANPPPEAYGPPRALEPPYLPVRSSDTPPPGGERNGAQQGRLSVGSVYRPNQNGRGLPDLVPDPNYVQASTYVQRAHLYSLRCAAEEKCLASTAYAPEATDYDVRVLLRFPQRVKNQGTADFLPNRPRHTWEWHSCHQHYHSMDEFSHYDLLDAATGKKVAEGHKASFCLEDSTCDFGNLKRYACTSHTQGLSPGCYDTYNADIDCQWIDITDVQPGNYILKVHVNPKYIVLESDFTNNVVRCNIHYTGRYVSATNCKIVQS
Experimental: as §1

MMTV-PyMT breast cancer = settings: in vivo; cited from earlier work
rhSSAO = rhSSAO (Homo sapiens (Human), UniProt Q16853); assay: Measurement of substrate turnover by SSAO; type: biochemical; settings: compound 2.5 mM, relative to background (dimethyl sulfoxide only)
Sequence of rhSSAO (Q16853 whole entry): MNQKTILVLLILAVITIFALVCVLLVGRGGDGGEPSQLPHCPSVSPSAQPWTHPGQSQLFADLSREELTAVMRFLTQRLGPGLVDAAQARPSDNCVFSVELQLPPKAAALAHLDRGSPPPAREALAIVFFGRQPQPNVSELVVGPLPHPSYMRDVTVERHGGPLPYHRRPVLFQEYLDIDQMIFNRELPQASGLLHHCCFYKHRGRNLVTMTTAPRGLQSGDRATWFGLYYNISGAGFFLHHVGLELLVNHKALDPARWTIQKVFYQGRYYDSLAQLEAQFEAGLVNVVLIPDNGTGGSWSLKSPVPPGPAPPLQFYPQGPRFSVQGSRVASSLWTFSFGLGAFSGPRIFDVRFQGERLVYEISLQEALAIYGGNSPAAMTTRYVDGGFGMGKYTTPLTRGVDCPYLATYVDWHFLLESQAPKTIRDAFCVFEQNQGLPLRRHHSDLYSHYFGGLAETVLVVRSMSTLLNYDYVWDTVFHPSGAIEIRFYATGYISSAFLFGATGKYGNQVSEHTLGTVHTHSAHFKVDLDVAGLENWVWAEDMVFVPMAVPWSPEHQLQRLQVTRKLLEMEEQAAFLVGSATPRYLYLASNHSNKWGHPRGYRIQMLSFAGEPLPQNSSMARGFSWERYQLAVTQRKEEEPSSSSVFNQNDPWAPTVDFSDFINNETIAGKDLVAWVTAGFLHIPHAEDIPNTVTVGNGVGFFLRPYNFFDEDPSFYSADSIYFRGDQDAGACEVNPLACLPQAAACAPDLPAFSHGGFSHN
Experimental: In brief, the assay employed determines the substrate propensity of a compound relative to background (dimethyl sulfoxide only). Compound oxidation by rhSSAO was measured by fluorometric assay (Holt and Palcic, 2006). Briefly, rhSSAO was incubated for 2 hours at 37° C. in HEPES buffer before the addition of an equal volume of Amplex Red ([…]), horseradish peroxidase (4 U/ml), and Compound (2.5 mM) in the same buffer. The kinetics of the formation of resorufin was measured immediately using Optima reader (BMG Labtech GmbH, Ortenburg, Germany), at 37° C.

[8] = 30 min preincubation at 37 °C, benzylamine 600 μM, read-out: SSAO/VAP-1 Activity IC50

In the case of N#CCCN [BAPN, β-aminopropionitrile], the lung metastasis [1] is listed as “decreased”, the survival [1] is listed as “significantly increased” and the IC50 (Recombinant human MAO-B) is listed as greater than 30 µM. The “increased invasion in vitro under hypoxic/anoxic conditions” value [2] was “repressed”, the IC50 (LOXL2 [3]) was less than 1 µM and the “metastasis and survival after surgery induced systemic LOX” value [4] was “reducing metastasis and increasing survival”. For the same molecule, the “tolerability in human patients with scleroderma” value [5] was “poorly tolerated”, the “inflammation, synovial hyperplasia, angiogenesis and expression of MMP-2 and MMP-9” value (LOX) was “attenuate” and the IC50 [6, 8] was greater than 30 µM. For the same molecule, the IC50 (Bovine LOX) was less than 10 µM.
In the case of NC/C=C(\F)CS(=O)(=O)c1ccccc1Cl [Compound 19, (Z)-4-(2-chlorophenylsulfonyl)-3-fluorobut-2-en-1-amine hydrochloride], the IC50 (Recombinant human MAO-B) is reported as greater than 30 µM, the IC50 (LOXL2 [3]) is reported as less than 1 µM and the “Bone marrow (BM) and splenic fibrosis” value (GATA1low mice; vs vehicle) is reported as “significantly decreased”. For the same molecule, the “Morphologic BM megakaryocytes (MKs) on H&E stain” value (GATA1low mice; p<0.001 vs vehicle) was 24.65±0.6 per 20× field, the platelet count post-treatment (GATA1low mice; p<0.05 vs vehicle) was 77.5±4.4 K/uL and the “spleen weights adjusted to body weight” value (GATA1low mice; p<0.05 vs vehicle) was 242.25 ± 18 mg. The IC50 [6, 8] was greater than 30 µM, the “LOXL2 - Recovery of activity. (%)” value (LOXL2 [7]) was 7.9% and the “LOXL1 - Recovery of activity. (%)” value (LOXL1) was 7.8%. The IC50 (Bovine LOX) was less than 10 µM.
For CS(=O)(=O)c1cc(-c2ccccc2)cc(S(=O)(=O)c2ccc(CN)s2)c1 [CCT365623], the metastasis and survival (MMTV-PyMT breast cancer) is listed as “reduce metastasis and increase survival”.
With NC/C=C(\F)CS(=O)(=O)c1cccnc1 [Compound 31, (Z)-3-fluoro-4-(pyridin-3-ylsulfonyl)but-2-en-1-amine dihydrochloride] the “Substrate activity for rhSSAO” value (rhSSAO) was “no significant turnover”, the IC50 (LOXL2 [3]) was less than 1 µM and the IC50 [6, 8] was greater than 30 µM. The IC50 ([6]; second Table 6 (Example 38), read-out: Recombinant human SSAO (rhSSAO) inhibition (IC50)) was 27 µM, the “LOXL1 - Recovery of activity. (%)” value (LOXL1) was 8.2% and the IC50 (Bovine LOX) was less than 10 µM.
